Where a name gives a salt, the structure may show the parent alone.
Experiments:
[1] = target: Rat recombinant PDE10a (rPDE10a) (Rattus norvegicus (Rat), UniProt Q9QYJ6); assay: In vitro assay PDE10a (rat recombinant PDE10a, SPA); type: biochemical; conditions: 60 nM cAMP, 60 min at rt, read-out: rPDE10a2 IC50
In short: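 Rat PDE10a expressed in Sf9 cells (baculovirus) and Ni-sepharose purified. Incubated with compound for 60 min at rt in 50 mM Tris pH 7.8, 8.3 mM MgCl2, 1.7 mM EGTA with 60 nM cAMP plus 0.008 μCi ^3H-cAMP (final), 1% DMSO. Read-out by PDE SPA bead scintillation counting (cpm), no-enzyme blank.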

[2] = target: Human recombinant PDE10A2 (Homo sapiens (Human), UniProt Q9Y233); assay: In vitro hPDE10a (human recombinant PDE10A2, scintillation proximity assay); type: biochemical; conditions: human recombinant PDE10A2, 60 nM cAMP, 60 min at room temperature; read-out: hPDE10a2 IC50
Sequence of Human recombinant PDE10A2 (Q9Y233 267-1055): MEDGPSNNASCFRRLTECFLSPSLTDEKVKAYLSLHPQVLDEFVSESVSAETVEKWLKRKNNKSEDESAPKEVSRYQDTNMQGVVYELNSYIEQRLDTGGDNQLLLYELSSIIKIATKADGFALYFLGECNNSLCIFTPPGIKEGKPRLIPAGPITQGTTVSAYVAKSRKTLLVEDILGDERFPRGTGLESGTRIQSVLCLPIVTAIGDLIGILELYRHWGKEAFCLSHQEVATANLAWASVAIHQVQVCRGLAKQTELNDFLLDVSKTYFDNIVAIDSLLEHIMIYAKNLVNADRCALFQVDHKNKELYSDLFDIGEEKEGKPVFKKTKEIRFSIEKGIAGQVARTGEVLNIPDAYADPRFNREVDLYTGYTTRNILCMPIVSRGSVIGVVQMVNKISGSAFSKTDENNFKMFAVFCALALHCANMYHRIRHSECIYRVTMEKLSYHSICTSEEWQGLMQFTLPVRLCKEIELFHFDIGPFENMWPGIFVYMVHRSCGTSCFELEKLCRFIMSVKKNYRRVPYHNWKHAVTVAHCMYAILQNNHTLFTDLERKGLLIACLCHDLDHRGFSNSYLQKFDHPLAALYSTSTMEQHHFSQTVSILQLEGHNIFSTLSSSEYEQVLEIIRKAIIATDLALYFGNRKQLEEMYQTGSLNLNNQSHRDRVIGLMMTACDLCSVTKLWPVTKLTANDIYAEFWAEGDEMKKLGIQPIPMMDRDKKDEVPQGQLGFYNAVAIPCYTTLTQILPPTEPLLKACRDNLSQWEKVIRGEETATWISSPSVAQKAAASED

Sequence of Rat recombinant PDE10a (rPDE10a) (Q9QYJ6 whole entry): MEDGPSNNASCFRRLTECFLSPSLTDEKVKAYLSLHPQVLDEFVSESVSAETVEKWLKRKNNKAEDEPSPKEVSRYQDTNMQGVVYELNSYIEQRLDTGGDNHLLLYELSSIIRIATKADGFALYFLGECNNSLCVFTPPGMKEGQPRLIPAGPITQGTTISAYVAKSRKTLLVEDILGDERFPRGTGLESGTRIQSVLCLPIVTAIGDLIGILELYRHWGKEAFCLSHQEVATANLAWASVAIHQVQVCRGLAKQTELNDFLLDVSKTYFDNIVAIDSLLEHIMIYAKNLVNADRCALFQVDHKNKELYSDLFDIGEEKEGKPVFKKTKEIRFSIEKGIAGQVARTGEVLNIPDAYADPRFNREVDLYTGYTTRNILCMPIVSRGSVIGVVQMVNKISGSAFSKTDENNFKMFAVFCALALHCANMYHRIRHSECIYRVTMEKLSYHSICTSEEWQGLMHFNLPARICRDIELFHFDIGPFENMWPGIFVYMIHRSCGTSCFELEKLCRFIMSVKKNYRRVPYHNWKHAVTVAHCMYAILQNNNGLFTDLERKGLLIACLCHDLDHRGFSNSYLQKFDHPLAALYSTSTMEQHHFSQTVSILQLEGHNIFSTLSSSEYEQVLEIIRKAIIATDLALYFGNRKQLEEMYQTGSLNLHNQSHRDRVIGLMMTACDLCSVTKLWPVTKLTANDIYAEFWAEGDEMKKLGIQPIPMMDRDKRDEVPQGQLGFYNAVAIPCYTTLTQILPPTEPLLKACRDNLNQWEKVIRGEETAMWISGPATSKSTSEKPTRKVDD

Row | IC50 [1] [nM] | IC50 [2] [nM] | Structure (SMILES)
1 | 38 | 29 | c1ccc2nc(OCc3cn4c(-c5ccc(Sc6nnc[nH]6)nc5)cnc(N5CCOCC5)c4n3)ccc2c1 [Cpd 100, 4-(5-(6-((4H-1,2,4-triazol-3-yl)thio)pyridin-3-yl)-2-((quinolin-2-yloxy)methyl)imidazo[1,2-a]pyrazin-8-yl)morpholine]
2 | 20 | 15 | O=C(O)Cc1ccc(-c2cnc(N3CCOCC3)c3nc(COc4ccc5ccccc5n4)cn23)cn1 [Cpd 101, 2-(5-(8-Morpholino-2-((quinolin-2-yloxy)methyl)imidazo[1,2-a]pyrazin-5-yl)pyridin-2-yl)acetic acid]
3 | 17 | 35 | c1ccc2nc(CCc3cn4c(-c5ccc(N6CCNCC6)nc5)cnc(N5CCOCC5)c4n3)ccc2c1 [Cpd 102, 4-(5-(6-(piperazin-1-yl)pyridin-3-yl)-2-(2-(quinolin-2-yl)ethyl)imidazo[1,2-a]pyrazin-8-yl)morpholine trifluoroacetic acid salt]
4 | 617 | 676 | C(=C\c1ncccn1)/c1cn2c(-c3ccc(N4CCNCC4)nc3)cnc(N3CCOCC3)c2n1 [Cpd 103, (E)-4-(5-(6-(Piperazin-1-yl)pyridin-3-yl)-2-(2-(pyrimidin-2-yl)vinyl)imidazo[1,2-a]pyrazin-8-yl)morpholine]
5 | 68 | 129 | C(=C\c1ncc2ccccc2n1)/c1cn2c(-c3ccc(N4CCNCC4)nc3)cnc(N3CCOCC3)c2n1 [Cpd 104, (E)-4-(5-(6-(Piperazin-1-yl)pyridin-3-yl)-2-(2-(quinazolin-2-yl)vinyl)imidazo[1,2-a]pyrazin-8-yl)morpholine]
6 | 23 | 35 | C1=C(c2ccc(-c3cnc(N4CCOCC4)c4nc(COc5ccc6ccccc6n5)cn34)cn2)CCNC1 [Cpd 108, 4-(2-((quinolin-2-yloxy)methyl)-5-(1′,2′,3′,6′-tetrahydro-[2,4′-bipyridin]-5-yl)imidazo[1,2-a]pyrazin-8-yl)morpholine methane sulfonic acid salt]
7 | 95 | 89 | COC1CCN(c2ncc(-c3ccc(N4CCNCC4)nc3)n3cc(COc4ccc5ccccc5n4)nc23)CC1 [Cpd 112, 2-((8-(4-Methoxypiperidin-1-yl)-5-(6-(piperazin-1-yl)pyridin-3-yl)imidazo[1,2-a]pyrazin-2-yl)methoxy)quinoline trifluoroacetic acid salt]
8 | 151 | 224 | CC(=O)N1CCN(c2ncc(-c3ccc(N4CCNCC4)nc3)n3cc(COc4ccc5ccccc5n4)nc23)CC1 [Cpd 113]
9 | 2000 | 1350 | c1ccc2nc(C3CN(c4cn5c(-c6ccc(N7CCNCC7)nc6)cnc(N6CCOCC6)c5n4)C3)ccc2c1 [Cpd 114, 4-(5-(6-(piperazin-1-yl)pyridin-3-yl)-2-(3-(quinolin-2-yl)azetidin-1-yl)imidazo[1,2-a]pyrazin-8-yl)morpholine trifluoroacetic acid salt]
10 | 40 | 85 | O=C1CN(c2ncc(-c3ccc(N4CCNCC4)nc3)n3cc(COc4ccc5ccccc5n4)nc23)CCN1 [Cpd 115, 4-(5-(6-(piperazin-1-yl)pyridin-3-yl)-2-((quinolin-2-yloxy)methyl)imidazo[1,2-a]pyrazin-8-yl)piperazin-2-one trifluoroacetic acid salt]
11 | 3630 | 2630 | c1cnc(OCc2cn3c(-c4ccc(N5CCNCC5)nc4)cnc(N4CCOCC4)c3n2)nc1 [Cpd 116, 4-(5-(6-(piperazin-1-yl)pyridin-3-yl)-2-((pyrimidin-2-yloxy)methyl)imidazo[1,2-a]pyrazin-8-yl)morpholine trifluoroacetic acid salt]
12 | 30 | 78 | OC1CCN(c2ncc(-c3ccc(N4CCNCC4)nc3)n3cc(COc4ccc5ccccc5n4)nc23)CC1 [Cpd 118, 1-(5-(6-(Piperazin-1-yl)pyridin-3-yl)-2-((quinolin-2-yloxy)methyl)imidazo[1,2-a]pyrazin-8-yl)piperidin-4-ol trifluoroacetic acid salt]
13 | 15 | 20 | c1ccc2nc(OCc3cn4c(-c5ccc(N6CCNCC6)nc5)cnc(-c5ccncc5)c4n3)ccc2c1 [Cpd 120, 2-((5-(6-(Piperazin-1-yl)pyridin-3-yl)-8-(pyridin-4-yl)imidazo[1,2-a]pyrazin-2-yl)methoxy)quinoline trifluoroacetic acid salt]
14 | 8 | 19 | CN1CCN(c2ncc(-c3cnc(N4CCOCC4)c4nc(COc5ccc6ccccc6n5)cn34)cn2)CC1 [Cpd 123, 4-(5-(2-(4-Methylpiperazin-1-yl)pyrimidin-5-yl)-2-((quinolin-2-yloxy)methyl)imidazo[1,2-a]pyrazin-8-yl)morpholine methane sulfonic acid salt]
15 | 123 | 115 | c1ccc2nc(OCc3cn4c(-c5ccc(N6CCNCC6)nc5)cnc(N5CCOCC5)c4n3)ncc2c1 [Cpd 124, 4-(5-(6-(Piperazin-1-yl)pyridin-3-yl)-2-((quinazolin-2-yloxy)methyl)imidazo[1,2-a]pyrazin-8-yl)morpholine trifluoroacetic acid salt]
16 | 30 | 62 | CN(C)c1ccc(-c2cnc(N3CCOCC3)c3nc(COc4ccc5ccccc5n4)cn23)cn1 [Cpd 127, N,N-Dimethyl-5-(8-morpholino-2-((quinolin-2-yloxy)methyl)imidazo[1,2-a]pyrazin-5-yl)pyridin-2-amine methane sulfonic acid salt]
17 | 16 | 42 | CN1CCN(c2ccc(-c3cnc(N4CCOCC4)c4nc(COc5ccc6ccccc6n5)cn34)cn2)CC1 [Cpd 130, 4-(5-(6-(4-Methylpiperazin-1-yl)pyridin-3-yl)-2-((quinolin-2-yloxy)methyl)imidazo[1,2-a]pyrazin-8-yl)morpholine]
18 | 871 | 1620 | Clc1c(N2CC(c3ccc4ccccc4n3)C2)nc2c(N3CCOCC3)ncc(-c3ccc(N4CCNCC4)nc3)n12 [Cpd 132, 4-(3-Chloro-5-(6-(piperazin-1-yl)pyridin-3-yl)-2-(3-(quinolin-2-yl)azetidin-1-yl)imidazo[1,2-a]pyrazin-8-yl)morpholine trifluoroacetic acid salt]

Row | Structure (SMILES) | IC50 [1] [nM] | IC50 [2] [nM]
19 | C(=C\c1cn2c(-c3ccc(N4CCNCC4)nc3)cnc(N3CCOCC3)c2n1)/c1ccc2ccccc2n1 [Cpd 105, (E)-4-(5-(6-(piperazin-1-yl)pyridin-3-yl)-2-(2-(quinolin-2-yl)vinyl)imidazo[1,2-a]pyrazin-8-yl)morpholine trifluoroacetic acid salt] | 22 | 50
20 | c1ccc2nc(OCc3cn4c(-c5ccc(C6CCNCC6)nc5)cnc(N5CCOCC5)c4n3)ccc2c1 [Cpd 106, 4-(5-(6-(Piperidin-4-yl)pyridin-3-yl)-2-((quinolin-2-yloxy)methyl)imidazo[1,2-a]pyrazin-8-yl)morpholine trifluoroacetic acid salt] | 15 | 89
21 | O=S1(=O)CCN(c2ncc(-c3ccc(N4CCNCC4)nc3)n3cc(COc4ccc5ccccc5n4)nc23)CC1 [Cpd 117, 4-(5-(6-(Piperazin-1-yl)pyridin-3-yl)-2-((quinolin-2-yloxy)methyl)imidazo[1,2-a]pyrazin-8-yl)thiomorpholine 1,1-dioxide trifluoroacetic acid salt] | 32 | 56

Source: patent US9249163B2, “PDE10a inhibitors for the treatment of type II diabetes” (Janssen Pharmaceutica, NV, priority 2013, dated 2016)
